According to the supplement of paper PMC12420376:

Assays:
[1] = tested on: KURAMOCHI; assay: drug sensitivity score (DSS2) on cancer cell count; higher = more sensitive; extreme values may be limits of the assay; conditions: 72 h
Method in brief: (§1)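 Cancer cell counts came from 10× images (4 fields) of fixed cells immunostained for CK8/18 with Hoechst. The ovarian cancer cells had been grown alone or in 1:1 direct co-culture with lung or skin fibroblasts on 384-well plates pre-spotted acoustically with 528 approved and investigational compounds at 5 concentrations, then treated for 72 h. Breeze was used to derive a drug sensitivity score from logistic fits of the data.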

[2] = tested on: OVCAR8; assay: as above; conditions: 72 h
Method in brief: as §1

[3] = co-cultured fibroblast: BJHTERT
[4] = co-cultured fibroblast: none (monoculture)

Row | Structure (SMILES) | drug sensitivity score [1, 3] [DSS] | drug sensitivity score ([1]; co-cultured fibroblast: WI38) [DSS] | drug sensitivity score [1, 4] [DSS] | drug sensitivity score [2, 3] [DSS] | drug sensitivity score ([2]; co-cultured fibroblast: WI38) [DSS] | drug sensitivity score [2, 4] [DSS]
1 | O=C(c1ccc(F)c(F)c1Nc1ccc(I)cc1F)N1CC(O)([C@@H]2CCCCN2)C1 [Cobimetinib] | 11.5 | 6.4 | 7.2 | 8.4 | 2.1 | 9.6
2 | CC(=O)Nc1cccc(-n2c(=O)n(C3CC3)c(=O)c3c(Nc4ccc(I)cc4F)n(C)c(=O)c(C)c32)c1 [Trametinib] | 9 | 7.4 | 7.6 | 10.7 | 3.9 | 13.5
3 | C=C1C[C@@H]2CC[C@@]34C[C@H]5O[C@H]6[C@@H](O3)[C@H]3O[C@H](CC[C@@H]3O[C@H]6[C@H]5O4)CC(=O)C[C@@H]3[C@@H](OC)[C@@H](C[C@H](O)CN)O[C@H]3C[C@H]3O[C@@H](CC[C@@H]1O2)C[C@@H](C)C3=C [Eribulin] | 28.8 | 26.9 | 27.5 | 27.5 | 29.9 | 26.6
4 | Nc1nc(Cl)nc2c1ncn2[C@@H]1O[C@H](CO)[C@@H](O)[C@@H]1F [Clofarabine] | 13 | 19.7 | 10.7 | 30.7 | 28.7 | 27.7
5 | CC[C@H](CC#N)OC(=O)N[C@@H](C)c1cccc(NC(=O)Nc2ccc(-c3cnco3)c(OC)c2)c1 [AVN944] | 12.7 | 17.5 | 19.4 | 22.4 | 15 | 26.6
6 | Cc1[nH]nc(C(F)(F)F)c1Cc1sc2c(c1C(=O)N1C[C@](C)(O)CO1)c(=O)n(C)c(=O)n2C(C)C [AZD3965] | 0 | 1.7 | 0 | 0 | 0 | 0
7 | CC#CC(=O)N1CC[C@@H](n2c(=O)n(-c3ccc(Oc4ccccc4)cc3)c3c(N)ncnc32)C1 [Tirabrutinib] | 1.4 | 0 | 0 | 0 | 0 | 0
8 | CCN1C(=O)CNc2ncc(-c3ccc(-c4nc[nH]n4)nc3C)nc21 [CC-115] | 6.9 | 5.7 | 15.1 | 20.1 | 4.8 | 8.7
9 | CC(C)N(C[C@H]1O[C@@H](n2cnc3c(N)ncnc32)[C@H](O)[C@@H]1O)[C@H]1C[C@@H](CCc2nc3cc(C(C)(C)C)ccc3[nH]2)C1 [Pinometostat] | 0 | 0 | 0 | 0 | 0 | 0
10 | COCC[n+]1c2c(n(Cc3cnccn3)c1C)C(=O)c1ccccc1C2=O [Sepantronium bromide] | 40.7 | 30 | 30.5 | 37.1 | 35.5 | 29.9
11 | Nc1ncnc2c1nc(N)n2[C@@H]1O[C@H](CO)[C@@H](O)[C@H]1O [8-amino-adenosine] | 21 | 20.3 | 21.4 | 17.9 | 16.5 | 19.5
12 | COc1cccc2c1C(=O)c1c(O)c3c(c(O)c1C2=O)C[C@@](O)(C(=O)CO)C[C@@H]3O[C@H]1C[C@H](N)[C@@H](O)[C@H](C)O1 [Epirubicin] | 12.2 | 12.7 | 19.2 | 14.7 | 9 | 12.3
13 | CC(C)(C)c1cc(NC(=O)Nc2ccc(Oc3ccnc4[nH]c(=O)cnc34)cc2F)n(-c2ccccc2)n1 | 10 | 6.1 | 7 | 6.6 | 3.4 | 4.6
14 | N#Cc1ccc(C(c2ccc(C#N)cc2)n2cncn2)cc1 [Letrozole] | 0 | 0 | 0 | 0 | 0 | 0
15 | Nc1ncn([C@H]2C[C@H](O)[C@@H](CO)O2)c(=O)n1 [Decitabine] | 0 | 1.7 | 0.3 | 6.9 | 11.4 | 4.8
16 | COc1cc2nccc(Oc3ccc(NC(=O)NC4CC4)c(Cl)c3)c2cc1C(N)=O [Lenvatinib] | 0.2 | 0 | 0 | 0 | 0 | 0.7
17 | Cc1cc(Nc2cc(N3CCN(C)CC3)nc(Sc3ccc(NC(=O)C4CC4)cc3)n2)n[nH]1 [Tozasertib] | 22 | 19.4 | 23.7 | 20.1 | 19.5 | 20.9
18 | COc1cc(Nc2ncc(F)c(Nc3ccc4c(n3)N(COP(=O)(O)O)C(=O)C(C)(C)O4)n2)cc(OC)c1OC [Fostamatinib] | 0 | 2 | 0.3 | 0 | 0 | 0
19 | CC(O)c1cc(C(=O)N[C@@H](C)Cn2ccc(-c3ccc(C#N)c(Cl)c3)n2)n[nH]1 (stereo not given in full) [ODM-201] | 1.3 | 0 | 3.7 | 0.5 | 0 | 0
20 | Cc1cc(-c2nc(-c3ccc(OC(F)(F)F)cc3)no2)nn1Cc1ccnc(N2CCN(C3CC3)CC2)c1 [BAY 87-2243] | 7.6 | 0 | 4.3 | 31.1 | 0 | 4.8
21 | CCOc1cc2ncc(C#N)c(Nc3ccc(OCc4ccccn4)c(Cl)c3)c2cc1NC(=O)/C=C/CN(C)C [Neratinib] | 9 | 3.6 | 1.4 | 7 | 3 | 6
22 | COC(=O)c1ccc2c(c1)NC(=O)/C2=C(\Nc1ccc(N(C)C(=O)CN2CCN(C)CC2)cc1)c1ccccc1 [Nintedanib] | 8.2 | 2.7 | 4.6 | 9.8 | 4.6 | 7.9
23 | Cc1cc(F)c(C(=O)Nc2cccc(-c3nncn3C(C)C)n2)cc1-n1cnc(C2CC2)c1 [Selonsertib] | 0 | 0 | 0 | 0 | 0 | 0

Row | Structure (SMILES) | drug sensitivity score [1, 3] [DSS] | drug sensitivity score ([1]; co-cultured fibroblast: WI38) [DSS] | drug sensitivity score [1, 4] [DSS] | drug sensitivity score [2, 3] [DSS] | drug sensitivity score ([2]; co-cultured fibroblast: WI38) [DSS] | drug sensitivity score [2, 4] [DSS]
24 | Nc1ncnc2c1c(COc1cccc(Cl)c1)nn2C1CCOCC1 | 0 | 0 | 0 | 0 | 0 | 0
25 | Cc1cnc(-c2ccccc2C(C)C)nc1NCc1ccc(-n2ccnn2)cc1 [ML323] | 0 | 1.3 | 1.9 | 2.9 | 0 | 3.8
26 | CN1CCN(c2ccc(C(=O)Nc3n[nH]c4ccc(Cc5cc(F)cc(F)c5)cc34)c(NC3CCOCC3)c2)CC1 [Entrectinib] | 2.1 | 0.3 | 1.4 | 0 | 4 | 0
27 | C[C@H]1CN(C2COC2)CCN1c1ccc(Nc2cc(-c3ccnc(N4CCn5c(cc6c5CC(C)(C)C6)C4=O)c3CO)cn(C)c2=O)nc1 [GDC-0853] | 0 | 0 | 0 | 0 | 2.3 | 0
28 | CNC(=O)[C@@H](NC(=O)[C@H](CC(C)C)[C@H](O)C(=O)NO)C(C)(C)C [Marimastat] | 0 | 0 | 0 | 0.2 | 1.4 | 0.7
29 | CN1CCN(C2CCN(C(=O)Nc3cc(Oc4ccc(NC(=O)C5(C(=O)Nc6ccc(F)cc6)CC5)c(F)c4)ccn3)CC2)CC1 [Golvatinib] | 0 | 0 | 0 | 0 | 0 | 0
30 | O=C(c1ccc(C(=O)N2CCC(N3CCCC3)CC2)c(Nc2ccccc2)c1)N1CCC(N2CCCC2)CC1 [UNC1215] | 0 | 0 | 0 | 0 | 0 | 0
31 | CCOCc1nc2c(N)nc3ccccc3c2n1CC(C)(C)O [Resiquimod] | 0 | 0 | 6.7 | 0.3 | 0 | 0
32 | Cc1nc(-c2cn3c(n2)-c2ccc(-c4cnn(C(C)(C)C(N)=O)c4)cc2OCC3)n(C(C)C)n1 [Taselisib] | 9.2 | 4.7 | 10.7 | 3.1 | 0 | 3.3
33 | COc1cc2ncnc(Oc3cccc(NC(=O)Nc4cc(C(C)(C)C(F)(F)F)on4)c3)c2cc1OC | 0 | 1.4 | 0 | 0 | 0 | 0.8
34 | Cc1c(-c2ccc(N3CCc4cccc(C(=O)Nc5nc6ccccc6s5)c4C3)nc2C(=O)O)cnn1CC12CC3CC(CC(C3)C1)C2 | 3 | 8.2 | 3.8 | 1.6 | 0 | 1.6
35 | CC(C)(C)c1cc(NC(=O)Nc2ccc(-c3cn4c(n3)sc3cc(OCCN5CCOCC5)ccc34)cc2)no1 [Quizartinib] | 0 | 0 | 0 | 3.6 | 6.2 | 0
36 | Nc1ncnc2c1nc(Cl)n2[C@@H]1O[C@H](CO)[C@@H](O)[C@H]1O [8-chloro-adenosine] | 10.1 | 10.4 | 10.3 | 12.9 | 9.9 | 16.9
37 | O=C(c1ccc(OCCN2CCCCC2)cc1)c1c(-c2ccc(O)cc2)sc2cc(O)ccc12 [Raloxifene] | 4 | 0 | 0 | 2.5 | 0 | 0
38 | CN(C)C(=N)NC(=N)N [Metformin] | 0 | 0 | 0 | 0 | 0 | 0
39 | C[C@H]1C[C@@H]2[C@H]([C@@H](O)C[C@@]3(C)[C@H]2CC[C@]3(O)C(=O)CO)[C@@]2(C)C=CC(=O)C=C12 [Methylprednisolone] | 0 | 0 | 9.8 | 0 | 0 | 8.1
40 | C/C=C1\NC(=O)[C@H]2CSSCC/C=C/[C@H](CC(=O)N[C@H](C(C)C)C(=O)N2)OC(=O)[C@H](C(C)C)NC1=O [Romidepsin] | 28 | 30 | 32.7 | 29.2 | 26.5 | 30.4
41 | CCN1CCN(c2ccc(Nc3cc(N(C)C(=O)Nc4c(Cl)c(OC)cc(OC)c4Cl)ncn3)cc2)CC1 [Infigratinib] | 0 | 0 | 0 | 0 | 0 | 0
42 | Cc1ncc(-c2ccnc(Nc3ccc(S(C)(=O)=O)cc3)n2)n1C(C)C [AZD-5438] | 17.8 | 22.5 | 17.7 | 19 | 19.2 | 17.2
43 | Cc1cccc(-c2[nH]c(CNc3ccccc3F)nc2-c2ccc3ncnn3c2)n1 [TEW-7197] | 0 | 0 | 0 | 11.2 | 16.2 | 4.2
44 | CS(=O)(=O)CCNCc1ccc(-c2ccc3ncnc(Nc4ccc(OCc5cccc(F)c5)c(Cl)c4)c3c2)o1 [Lapatinib] | 9.2 | 6.8 | 0 | 0.7 | 0 | 0
45 | CO[C@H]1C(=O)[C@]2(C)[C@@H](OC)C[C@H]3OC[C@@]3(OC(C)=O)[C@H]2[C@H](OC(=O)c2ccccc2)[C@]2(O)C[C@H](OC(=O)[C@H](O)[C@@H](NC(=O)OC(C)(C)C)c3ccccc3)C(C)=C1C2(C)C [Cabazitaxel] | 27.5 | 27.8 | 21.4 | 39.1 | 36 | 26
